According to publication PMC2577671, “Evaluation of Dimebon in cellular model of Huntington's disease” (Molecular Neurodegeneration, 2008):

Key:
[1] = target: T1, α1B-Adrenergic receptor (Rattus norvegicus, UniProt P15823); experiment: MDS Pharma Services binding screen at […]
T1 construct: gene Adra1b

[2] = target: T2, Potassium Channel hERG (Homo sapiens, UniProt Q12809); experiment: in vitro; design: MDS Pharma Lead Profiling screen, binding assays, per cent inhibition, duplicate
T2 construct: gene KCNH2
Method: The activity of Dimebon against selected set of biochemical targets was performed by MDS Pharma Services . The Dimebon was provided to MDS Pharma as dry powder, dissolved in DMSO and tested in 10 μM concentrations. The standard Lead Profiling + CYP450 screen was performed according to MDS Pharma specifications with additional custom-chosen targets added to the screen as indicated. To further understand potential mechanisms responsible for clinical effects of Dimebon, we evaluated Dimebon against a set of selected biochemical targets. Dimebon evaluation was performed by MDS Pharma Services . The standard Lead Profiling + CYP450 screen was performed with additional custom-selected targets added to the screen. The results of the screen obtained at 10 μM of Dimebon are provided as Additional File 3. […] Low affinity (50–60% inhibition) interactions were also observed for CYP450, 2C19 receptor, voltage-gated L-type Ca^2+ channel, Dopamine D4.2 receptor, and Serotonin 5-HT1 receptor. […] Supplementary file 1750-1326-3-15-S3.pdf: Additional file 3 The results of Dimebon screening against a selected set of biochemical targets. The complete results obtained by MDS Pharma with a selected list of biochemical targets using 10 μM of Dimebon as a probe. The Cat numbers refer to the MDS Pharma Services assay specification. The receptors and species are listed. […]

[3] = target: T3, Dopamine D2S receptor (Homo sapiens, UniProt P14416); experiment: MDS Pharma Services binding screen at […]
T3 construct: gene DRD2; D2S

[4] = target: T4, Serotonin 5-HT2c receptor (Homo sapiens, UniProt P28335); experiment: MDS Pharma Services binding screen at […]
T4 construct: gene HTR2C

[5] = target: T5, Histamine H2 receptor (Homo sapiens, UniProt P25021); experiment: MDS Pharma Services binding screen at […]
T5 construct: gene HRH2

[6] = target: T6, Histamine H1 receptor (Homo sapiens, UniProt P35367); experiment: MDS Pharma Services binding screen at […]
T6 construct: gene HRH1

[7] = target: T7, α1D-Adrenergic receptor (Homo sapiens, UniProt P25100); experiment: MDS Pharma Services binding screen at […]
T7 construct: gene ADRA1D

[8] = target: T8, α1A-Adrenergic receptor (Rattus norvegicus, UniProt P43140); experiment: MDS Pharma Services binding screen at […]
T8 construct: gene Adra1a

[9] = target: Peptidase, BACE1 (beta-Secretase) (Homo sapiens, UniProt P56817); experiment: biochemical; design: MDS Pharma Lead Profiling + CYP450 screen, enzyme assays, per cent inhibition, duplicate
Method: (§1) The activity of Dimebon against selected set of biochemical targets was performed by MDS Pharma Services . The Dimebon was provided to MDS Pharma as dry powder, dissolved in DMSO and tested in 10 μM concentrations. The standard Lead Profiling + CYP450 screen was performed according to MDS Pharma specifications with additional custom-chosen targets added to the screen as indicated. To further understand potential mechanisms responsible for clinical effects of Dimebon, we evaluated Dimebon against a set of selected biochemical targets. Dimebon evaluation was performed by MDS Pharma Services . The standard Lead Profiling + CYP450 screen was performed with additional custom-selected targets added to the screen. The results of the screen obtained at 10 μM of Dimebon are provided as Additional File 3. […] Low affinity (50–60% inhibition) interactions were also observed for CYP450, 2C19 receptor, voltage-gated L-type Ca^2+ channel, Dopamine D4.2 receptor, and Serotonin 5-HT1 receptor. […] Supplementary file 1750-1326-3-15-S3.pdf: Additional file 3 The results of Dimebon screening against a selected set of biochemical targets. The complete results obtained by MDS Pharma with a selected list of biochemical targets using 10 μM of Dimebon as a probe. The Cat numbers refer to the MDS Pharma Services assay specification. The receptors and species are listed. Dimebon was tested at 10 μM concentratio in duplicate. The % inhibition by Dimebon is shown numerically and graphically for each receptor. Significant targets (defined as % inhibition > 50%) are highlighted in yellow. Click here for file

[10] = target: T9, Monoamine Oxidase MAO-A (Homo sapiens, UniProt P21397); experiment: biochemical; design: MDS Pharma Lead Profiling + CYP450 screen, enzyme assays, per cent inhibition, duplicate
T9 construct: gene MAOA
Method: as §1

[11] = target: T10, Monoamine Oxidase MAO-B (Homo sapiens, UniProt P27338); experiment: biochemical; design: MDS Pharma Lead Profiling + CYP450 screen, enzyme assays, per cent inhibition, duplicate
T10 construct: gene MAOB
Method: as §1

[12] = target: T11, Serotonin 5-HT6 receptor (Homo sapiens, UniProt P50406); experiment: MDS Pharma Services binding screen at […]
T11 construct: gene HTR6

[13] = target: T12, G Protein-Coupled Receptor GPR103 (Homo sapiens, UniProt Q96P65); experiment: biochemical; design: MDS Pharma Lead Profiling screen, binding assays, per cent inhibition, duplicate
T12 construct: gene QRFPR
Method: as §1

[14] = target: T13, GABAB1A (Homo sapiens, UniProt Q9UBS5); experiment: biochemical; design: MDS Pharma Lead Profiling screen, binding assays, per cent inhibition, duplicate
T13 construct: gene GABBR1; isoform 1A
Method: as §1

[15] = target: T4, Serotonin 5-HT2c receptor; experiment: biochemical; design: MDS Pharma Lead Profiling screen, binding assays, per cent inhibition, duplicate
Method: as §1

[16] = target: T14, Calcium Channel N-Type (Rattus norvegicus, UniProt Q02294); experiment: biochemical; design: MDS Pharma Lead Profiling screen, binding assays, per cent inhibition, duplicate
T14 construct: gene Cacna1b
Method: as §1

[17] = target: T15, Serotonin 5-HT5A receptor (Homo sapiens, UniProt P47898); experiment: MDS Pharma Services binding screen at […]
T15 construct: gene HTR5A

[18] = target: T16, Nicotinic Acetylcholine alpha1, Bungarotoxin (Homo sapiens, UniProt P02708); experiment: biochemical; design: MDS Pharma Lead Profiling screen, binding assays, per cent inhibition, duplicate; details: read-out: % INHIBITION
T16 construct: gene CHRNA1

[19] = target: T17, CYP450, 1A2 (Homo sapiens, UniProt P05177); experiment: in vitro; design: MDS Pharma Lead Profiling + CYP450 screen, enzyme assays, per cent inhibition, duplicate
T17 construct: gene CYP1A2
Method: as §1

[20] = target: T18, CYP450, 2C9 (Homo sapiens, UniProt P11712); experiment: in vitro; design: MDS Pharma Lead Profiling + CYP450 screen, enzyme assays, per cent inhibition, duplicate
T18 construct: gene CYP2C9
Method: as §1

[21] = target: T19, CYP450, 3A4 (Homo sapiens, UniProt P08684); experiment: in vitro; design: MDS Pharma Lead Profiling + CYP450 screen, enzyme assays, per cent inhibition, duplicate
T19 construct: gene CYP3A4
Method: as §1

[22] = target: T20, CYP450, 2C19 (Homo sapiens, UniProt P33261); experiment: in vitro; design: MDS Pharma Lead Profiling + CYP450 screen, enzyme assays, per cent inhibition, duplicate
T20 construct: gene CYP2C19
Method: as §1

[23] = target: T21, CYP450, 2D6 (Homo sapiens, UniProt P10635); experiment: in vitro; design: MDS Pharma Lead Profiling + CYP450 screen, enzyme assays, per cent inhibition, duplicate
T21 construct: gene CYP2D6
Method: as §1

T4 sequence (P28335 33-458): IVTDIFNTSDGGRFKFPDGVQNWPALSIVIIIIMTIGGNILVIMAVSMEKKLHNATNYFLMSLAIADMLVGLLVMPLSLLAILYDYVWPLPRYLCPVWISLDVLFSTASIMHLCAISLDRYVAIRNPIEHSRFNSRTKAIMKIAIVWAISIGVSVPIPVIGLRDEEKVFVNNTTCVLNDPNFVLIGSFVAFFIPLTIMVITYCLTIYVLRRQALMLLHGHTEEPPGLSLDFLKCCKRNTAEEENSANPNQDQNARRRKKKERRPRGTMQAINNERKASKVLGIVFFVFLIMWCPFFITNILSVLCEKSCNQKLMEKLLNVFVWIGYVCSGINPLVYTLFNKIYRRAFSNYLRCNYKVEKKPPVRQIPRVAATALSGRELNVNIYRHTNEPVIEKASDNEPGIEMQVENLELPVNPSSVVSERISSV
T20 sequence (P33261 whole entry): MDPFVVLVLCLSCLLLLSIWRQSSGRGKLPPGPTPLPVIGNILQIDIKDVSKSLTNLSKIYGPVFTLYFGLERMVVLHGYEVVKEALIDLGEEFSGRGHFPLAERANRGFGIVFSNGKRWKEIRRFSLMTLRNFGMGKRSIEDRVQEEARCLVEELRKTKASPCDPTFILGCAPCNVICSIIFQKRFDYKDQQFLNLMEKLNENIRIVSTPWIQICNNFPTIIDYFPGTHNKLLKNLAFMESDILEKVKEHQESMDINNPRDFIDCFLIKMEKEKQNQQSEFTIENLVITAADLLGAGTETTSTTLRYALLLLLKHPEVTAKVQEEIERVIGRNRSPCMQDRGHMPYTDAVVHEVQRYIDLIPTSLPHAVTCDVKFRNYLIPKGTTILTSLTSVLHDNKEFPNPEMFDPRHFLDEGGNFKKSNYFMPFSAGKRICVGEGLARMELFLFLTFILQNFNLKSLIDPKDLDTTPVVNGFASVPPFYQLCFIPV
T7 sequence (P25100 whole entry): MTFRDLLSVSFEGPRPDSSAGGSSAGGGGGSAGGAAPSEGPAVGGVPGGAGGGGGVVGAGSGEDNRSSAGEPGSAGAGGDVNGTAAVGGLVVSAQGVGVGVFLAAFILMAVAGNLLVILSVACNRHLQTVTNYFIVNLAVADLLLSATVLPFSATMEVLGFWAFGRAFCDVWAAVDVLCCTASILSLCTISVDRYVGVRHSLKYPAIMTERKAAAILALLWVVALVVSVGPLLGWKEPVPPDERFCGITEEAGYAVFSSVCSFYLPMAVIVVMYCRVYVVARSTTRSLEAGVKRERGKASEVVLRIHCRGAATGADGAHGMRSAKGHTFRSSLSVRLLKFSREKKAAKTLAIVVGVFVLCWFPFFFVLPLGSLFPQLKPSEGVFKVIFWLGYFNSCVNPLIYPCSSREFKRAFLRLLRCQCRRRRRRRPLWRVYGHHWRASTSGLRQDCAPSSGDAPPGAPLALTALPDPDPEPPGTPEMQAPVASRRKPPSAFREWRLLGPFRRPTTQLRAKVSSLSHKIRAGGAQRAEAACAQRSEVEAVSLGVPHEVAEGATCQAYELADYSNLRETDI
T14 sequence (Q02294 whole entry): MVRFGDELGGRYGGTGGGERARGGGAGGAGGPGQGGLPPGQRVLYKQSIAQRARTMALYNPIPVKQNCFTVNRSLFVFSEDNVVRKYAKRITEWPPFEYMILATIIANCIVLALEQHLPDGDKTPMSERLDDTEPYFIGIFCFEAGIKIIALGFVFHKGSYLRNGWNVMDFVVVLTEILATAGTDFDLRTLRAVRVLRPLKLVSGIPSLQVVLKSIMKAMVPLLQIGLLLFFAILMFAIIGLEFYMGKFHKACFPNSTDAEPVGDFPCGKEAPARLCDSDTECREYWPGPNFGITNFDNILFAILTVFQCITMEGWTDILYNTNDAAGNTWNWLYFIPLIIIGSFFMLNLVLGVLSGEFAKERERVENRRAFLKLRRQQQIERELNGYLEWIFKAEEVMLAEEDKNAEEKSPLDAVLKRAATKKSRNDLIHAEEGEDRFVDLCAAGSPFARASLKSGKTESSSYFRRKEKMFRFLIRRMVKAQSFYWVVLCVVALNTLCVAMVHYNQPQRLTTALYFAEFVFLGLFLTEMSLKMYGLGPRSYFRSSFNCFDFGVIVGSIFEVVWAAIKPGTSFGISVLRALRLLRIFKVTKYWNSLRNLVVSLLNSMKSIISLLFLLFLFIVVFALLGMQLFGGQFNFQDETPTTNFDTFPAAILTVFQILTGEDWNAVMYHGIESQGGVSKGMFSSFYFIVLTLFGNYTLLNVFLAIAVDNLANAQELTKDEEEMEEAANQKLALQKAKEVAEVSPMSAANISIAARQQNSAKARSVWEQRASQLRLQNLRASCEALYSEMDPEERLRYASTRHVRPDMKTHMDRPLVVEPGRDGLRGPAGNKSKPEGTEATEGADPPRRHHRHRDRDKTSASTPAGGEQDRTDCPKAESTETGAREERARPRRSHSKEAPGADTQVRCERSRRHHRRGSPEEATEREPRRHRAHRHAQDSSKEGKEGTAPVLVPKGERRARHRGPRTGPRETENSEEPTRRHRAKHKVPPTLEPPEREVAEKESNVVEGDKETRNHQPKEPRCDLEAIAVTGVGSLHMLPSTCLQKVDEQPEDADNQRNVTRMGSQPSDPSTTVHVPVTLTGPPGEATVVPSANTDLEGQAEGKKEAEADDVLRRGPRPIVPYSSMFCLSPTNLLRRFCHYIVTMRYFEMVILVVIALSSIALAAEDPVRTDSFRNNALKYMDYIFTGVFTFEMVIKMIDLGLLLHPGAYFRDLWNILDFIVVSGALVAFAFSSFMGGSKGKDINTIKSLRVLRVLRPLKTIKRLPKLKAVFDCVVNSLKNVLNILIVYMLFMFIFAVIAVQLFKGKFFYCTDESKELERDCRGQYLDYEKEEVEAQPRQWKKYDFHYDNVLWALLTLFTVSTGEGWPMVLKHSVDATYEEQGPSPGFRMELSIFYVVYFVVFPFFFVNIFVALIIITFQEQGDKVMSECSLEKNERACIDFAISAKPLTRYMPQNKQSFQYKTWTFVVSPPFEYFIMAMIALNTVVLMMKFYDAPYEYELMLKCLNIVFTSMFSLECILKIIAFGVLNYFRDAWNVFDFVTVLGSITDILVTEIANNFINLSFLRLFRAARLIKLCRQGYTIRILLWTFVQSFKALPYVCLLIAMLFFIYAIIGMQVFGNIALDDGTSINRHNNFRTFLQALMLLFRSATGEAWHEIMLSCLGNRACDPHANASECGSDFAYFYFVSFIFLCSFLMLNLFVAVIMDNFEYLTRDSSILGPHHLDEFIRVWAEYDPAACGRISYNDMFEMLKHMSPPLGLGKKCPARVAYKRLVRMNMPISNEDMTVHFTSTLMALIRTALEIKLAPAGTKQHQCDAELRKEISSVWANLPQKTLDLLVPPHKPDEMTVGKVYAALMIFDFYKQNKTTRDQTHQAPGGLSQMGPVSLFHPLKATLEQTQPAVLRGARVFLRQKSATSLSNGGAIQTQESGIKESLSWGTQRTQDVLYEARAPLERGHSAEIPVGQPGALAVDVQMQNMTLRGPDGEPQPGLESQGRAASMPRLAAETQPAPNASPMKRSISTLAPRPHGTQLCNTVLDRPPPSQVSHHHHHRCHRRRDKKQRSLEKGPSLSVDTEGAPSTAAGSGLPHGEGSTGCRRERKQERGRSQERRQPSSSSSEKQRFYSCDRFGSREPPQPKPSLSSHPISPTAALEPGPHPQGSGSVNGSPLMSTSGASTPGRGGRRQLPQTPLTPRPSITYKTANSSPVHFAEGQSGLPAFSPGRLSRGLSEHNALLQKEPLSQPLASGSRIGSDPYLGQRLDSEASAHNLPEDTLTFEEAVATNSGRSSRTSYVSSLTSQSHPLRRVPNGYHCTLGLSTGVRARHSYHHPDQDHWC
T21 sequence (P10635 whole entry): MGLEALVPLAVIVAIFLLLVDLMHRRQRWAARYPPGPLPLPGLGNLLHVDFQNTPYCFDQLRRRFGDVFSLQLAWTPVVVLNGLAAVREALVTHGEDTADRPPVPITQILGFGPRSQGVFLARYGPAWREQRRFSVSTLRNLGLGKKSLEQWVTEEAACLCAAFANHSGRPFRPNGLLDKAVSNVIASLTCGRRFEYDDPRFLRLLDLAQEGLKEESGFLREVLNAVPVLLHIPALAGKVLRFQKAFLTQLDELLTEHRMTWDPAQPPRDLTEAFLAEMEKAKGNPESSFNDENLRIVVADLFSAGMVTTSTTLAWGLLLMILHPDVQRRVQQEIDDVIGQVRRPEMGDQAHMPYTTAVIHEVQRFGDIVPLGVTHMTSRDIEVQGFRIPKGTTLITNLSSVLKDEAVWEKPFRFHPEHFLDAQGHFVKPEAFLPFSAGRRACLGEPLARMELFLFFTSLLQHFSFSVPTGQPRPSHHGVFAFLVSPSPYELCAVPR
T6 sequence (P35367 whole entry): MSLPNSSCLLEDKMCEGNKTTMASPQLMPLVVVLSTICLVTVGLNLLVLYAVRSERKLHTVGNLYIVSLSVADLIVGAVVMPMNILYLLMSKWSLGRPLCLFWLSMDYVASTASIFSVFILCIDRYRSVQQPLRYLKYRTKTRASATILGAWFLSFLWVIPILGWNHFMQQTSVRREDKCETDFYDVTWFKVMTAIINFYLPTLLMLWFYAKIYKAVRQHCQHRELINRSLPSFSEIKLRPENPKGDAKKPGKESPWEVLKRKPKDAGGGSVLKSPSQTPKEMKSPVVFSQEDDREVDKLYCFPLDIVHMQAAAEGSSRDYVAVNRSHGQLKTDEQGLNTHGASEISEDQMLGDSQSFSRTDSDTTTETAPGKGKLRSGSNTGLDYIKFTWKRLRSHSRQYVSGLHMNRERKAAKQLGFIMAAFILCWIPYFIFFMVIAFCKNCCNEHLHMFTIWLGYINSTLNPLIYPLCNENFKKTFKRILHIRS

In the case of `Cc1ccc2c(c1)c1c(n2CCc2ccc(C)nc2)CCN(C)C1` [Dimebon, 2,3,4,5-Tetrahydro-2,8-dimethyl-5-(2-(6-methyl-3-pyridyl)ethyl)-1H-pyrido(4,3-b)indole], the inhibition at 10 µM [1] is reported as over 90%, the inhibition at 10 µM [2] is reported as 45% and the inhibition at 10 µM [3] is reported as 70 to 80%. For the same compound, the inhibition at 10 µM [4] was over 90%, the inhibition at 10 µM [5] was over 90% and the inhibition at 10 µM [6] was over 90%. The inhibition at 10 µM [7] was over 90%, the inhibition at 10 µM [8] was over 90% and the inhibition at 10 µM [9] was -9%. For the same compound, the inhibition at 10 µM [10] was 6%, the inhibition at 10 µM [11] was 5% and the inhibition at 10 µM [12] was over 90%. The inhibition at 10 µM [13] was 4%, the inhibition at 10 µM [14] was -10% and the inhibition at 10 µM [15] was 95%. For the same compound, the inhibition at 10 µM [16] was 0%, the inhibition at 10 µM [17] was over 90% and the inhibition at 10 µM [18] was 1%. It also gave an inhibition at 10 µM [19] of 5%, an inhibition at 10 µM [20] of 2% and an inhibition at 10 µM [21] of 22%. It also gave an inhibition at 10 µM [22] of 55% and an inhibition at 10 µM [23] of 16%.
